Values of other authors as cited in US20110104257A1, “POLYMORPHISMS PREDICTIVE OF PLATINUM-COORDINATING COMPOUND-INDUCED OTOTOXICITY” (priority 2008, published 2011).
Where two headings read alike, the source gives them in different places.

Key:
[1] = system: aminoglycoside ototoxicity; conditions: Guinea pig; also: key: +, low efficacy; ++, moderate efficacy; +++, high efficacy
cisplatin ototoxicity [2] = system: cisplatin ototoxicity; design: key to the marks not given beside the values; conditions: Hamster
cisplatin ototoxicity [3] = conditions: Rat
[4] = system: aminoglycoside ototoxicity; design: key to the marks not given beside the values; conditions: Gentamicin; Rat; also: key: +, low efficacy; ++, moderate efficacy; +++, high efficacy
cisplatin ototoxicity [5] = conditions: species cell empty
[6] = system: aminoglycoside ototoxicity; design: key to the marks not given beside the values; conditions: Gentamicin; Mouse; also: key: +, low efficacy; ++, moderate efficacy; +++, high efficacy
cisplatin ototoxicity [7] = system: cisplatin ototoxicity; design: key to the marks not given beside the values; conditions: Chinchilla
[8] = mice
cisplatin ototoxicity [9] = system: cisplatin ototoxicity; design: key to the marks not given beside the values; conditions: Guinea pig

## O=C(O)CCCC[C@@H]1CCSS1 (racemic) [Lipoic acid]
[1]; Amikacin
  Efficacy of protective agent against aminoglycoside ototoxicity: +++

## c1ccc(-c2ccccn2)nc1 [2,2-DPD, 2,2′-dipyridyl]
[1]; Gentamicin
  Efficacy of protective agent against aminoglycoside ototoxicity: ++

## NCC[C@H](O)C(=O)N[C@@H]1C[C@H](N)[C@@H](O[C@H]2O[C@H](CN)[C@@H](O)[C@H](O)[C@H]2O)[C@H](O)[C@H]1O[C@H]1O[C@H](CO)[C@@H](O)[C@H](N)[C@H]1O [Amakacin preconditioning]
[1]; Amikacin
  Efficacy of protective agent against aminoglycoside ototoxicity: ++

## NCCCNCCSP(=O)(O)O [Amifostine]
Cisplatin ototoxicity [2]
  Degree of protection against cisplatin ototoxicity: +++

## N=C(N)NN [Aminoguanidine]
Cisplatin ototoxicity [3]
  Degree of protection against cisplatin ototoxicity: ++

## CSCC[C@H](NC(=O)[C@H](Cc1ccccc1)NC[C@@H](NC[C@@H](N)CS)C(C)C)C(=O)O [B581]
[4]
  Efficacy of protective agent against aminoglycoside ototoxicity: ++

## OC[C@H]1O[C@@H](n2cnc3c(NC4CCCC4)nc(Cl)nc32)[C@H](O)[C@@H]1O [CCPA, 2-chloro-N-cyclopentyladenosine]
Cisplatin ototoxicity [5]
  Degree of protection against cisplatin ototoxicity: ++

## CCSCc1ccc2c(c1)c1c3c(c4c5cc(CSCC)ccc5n5c4c1n2[C@H]1C[C@](O)(C(=O)OC)[C@]5(C)O1)CNC3=O [CEP1347]
[1]; Gentamicin
  Efficacy of protective agent against aminoglycoside ototoxicity: +

## CSCC[C@@H](N)C(=O)O [D-methionine]
[1]; Gentamicin
  Efficacy of protective agent against aminoglycoside ototoxicity: ++
Cisplatin ototoxicity [3]
  Degree of protection against cisplatin ototoxicity: +++

## C=C(CC)C(=O)c1ccc(OCC(=O)O)c(Cl)c1Cl [Ethacrynic acid]
[1]; Gentamicin
  Efficacy of protective agent against aminoglycoside ototoxicity: +

## COC(=O)[C@H](CCSC)NC(=O)c1ccc(NC[C@@H](N)CS)cc1-c1ccccc1 [FTI277]
[4]
  Efficacy of protective agent against aminoglycoside ototoxicity: +++

## Nc1nc2c(ncn2[C@@H]2O[C@H](COP(=O)(O)OP(O)(O)=S)[C@@H](O)[C@H]2O)c(=O)[nH]1 [GDP-βs]
[4]
  Efficacy of protective agent against aminoglycoside ototoxicity: +++

## [Cl-].[Cl-].[Mn+2].c1cc2nc(c1)CN[C@@H]1CCCC[C@H]1NCCN[C@@H]1CCCC[C@H]1NC2 [M40403]
[6]
  Efficacy of protective agent against aminoglycoside ototoxicity: ++
Cisplatin ototoxicity [5]
  Degree of protection against cisplatin ototoxicity: 0

## NS(=O)(=O)C#Cc1ccccc1 [Pifithrin]
Cisplatin ototoxicity [5]
  Degree of protection against cisplatin ototoxicity: ++

## C[C@H](Cc1ccccc1)Nc1ncnc2c1ncn2[C@@H]1O[C@H](CO)[C@@H](O)[C@H]1O [R-PIA]
Cisplatin ototoxicity [7]
  Degree of protection against cisplatin ototoxicity: ++

## C[S+](CC[C@H](N)C(=O)O)C[C@H]1O[C@@H](n2cnc3c(N)ncnc32)[C@H](O)[C@@H]1O (stereo partly shown) [SAM, S-adenosyl methionine]
[8]
  toxicity as monitored by renal dysfunction (creatinine and BUN): not toxic

## CC(S)C(=O)NCC(=O)O (stereo not shown) [Tiopronin]
Cisplatin ototoxicity [3]
  Degree of protection against cisplatin ototoxicity: ++

## Cc1c(C)c2c(c(C)c1O)CCC(C)(C(=O)O)O2 (stereo not shown) [Trolox]
Cisplatin ototoxicity [9]
  Degree of protection against cisplatin ototoxicity: ++

## N.N.[Cl][Pt][Cl] [cisplatin]
Adult patients
  severe, permanent, bilateral hearing loss, share of patients: 10-25%
children
  severe, permanent, bilateral hearing loss, share of patients: 41-61%
Children less than 5 years old
  Permanent hearing loss, frequency: 48%
Patients receiving high doses (>400 mg/m^2)
  severe, permanent, bilateral hearing loss, share of patients: 50%
Patients receiving standard doses of cisplatin
  Permanent hearing loss, share of patients: 25%

## Cc1c(C)c2c(c(C)c1O)CC[C@@](C)(CCC[C@H](C)CCC[C@H](C)CCCC(C)C)O2 [α-Tocopherol]
[1]; Gentamicin
  Efficacy of protective agent against aminoglycoside ototoxicity: +++
Cisplatin ototoxicity [9]
  Degree of protection against cisplatin ototoxicity: ++
Cisplatin ototoxicity [3]
  Degree of protection against cisplatin ototoxicity: ++

## Glutathione ester
Cisplatin ototoxicity [3]
  Degree of protection against cisplatin ototoxicity: +

## Methylthiobenzoic acid
Cisplatin ototoxicity [3]
  Degree of protection against cisplatin ototoxicity: ++

## SOD1: SOD1, protective agent
[1]; Kanamycin + Ethacrynic acid
  Efficacy of protective agent against aminoglycoside ototoxicity: ++

## Z-DEVD-fluoromethyl ketone
Cisplatin ototoxicity [9]
  Degree of protection against cisplatin ototoxicity: +++

## Z-LEKD-fluoromethyl ketone
Cisplatin ototoxicity [9]
  Degree of protection against cisplatin ototoxicity: +++

B1: SOD2: SOD2, protective agent (protein, UniProt P04179 25-222, looked up)
Superoxide dismutase [Mn], …: KHSLPDLPYDYGALEPHINAQIMQLHHSKHHAAYVNNLNVTEEKYQEALAKGDVTAQIALQPALKFNGGGHINHSIFWTNLSPNGGGEPKGELLEAIKRDFGSFDKFKEKLTAASVGVQGSGWGWLGFNKERGHLQIAACPNQDPLQGTTGLIPLLGIDVWEHAYYLQYKNVRPDYLKAIWNVINWENVTERYMACKK
[1]; Kanamycin + Ethacrynic acid
  Efficacy of protective agent against aminoglycoside ototoxicity: ++
